Patent US11986457B2, “Nutraceutical compositions” (SpecNova LLC, priority 2021, dated 2024)

Target: Human Dopamine Transporter (DAT) (Homo sapiens, UniProt Q01959)
Test: Human Dopamine Transporter (DAT) Binding (Antagonist Radioligand) Assay
Conditions: for level of inhibition in the dopamine transporter inhibitory assay: statement in words in the description
Procedure: Human Dopamine Transporter (DAT) Binding (Antagonist Radioligand) Assay
Nonspecific binding is determined in the presence of 10 μM BTCP. Following incubation, the samples are filtered rapidly under vacuum through glass fiber filters (GF/B, Packard) presoaked with 0.3% PEI and rinsed several times with ice-cold 50 mM Tris-HCl using a 96-sample cell harvester (Unifilter, Packard). The filters are dried then counted for radioactivity in a scintillation counter (Topcount, Packard) using a scintillation cocktail (Microscint 0, Packard). The results are expressed as a percent inhibition of the control radioligand specific binding.

Chain of Human Dopamine Transporter (DAT) (Q01959 whole entry): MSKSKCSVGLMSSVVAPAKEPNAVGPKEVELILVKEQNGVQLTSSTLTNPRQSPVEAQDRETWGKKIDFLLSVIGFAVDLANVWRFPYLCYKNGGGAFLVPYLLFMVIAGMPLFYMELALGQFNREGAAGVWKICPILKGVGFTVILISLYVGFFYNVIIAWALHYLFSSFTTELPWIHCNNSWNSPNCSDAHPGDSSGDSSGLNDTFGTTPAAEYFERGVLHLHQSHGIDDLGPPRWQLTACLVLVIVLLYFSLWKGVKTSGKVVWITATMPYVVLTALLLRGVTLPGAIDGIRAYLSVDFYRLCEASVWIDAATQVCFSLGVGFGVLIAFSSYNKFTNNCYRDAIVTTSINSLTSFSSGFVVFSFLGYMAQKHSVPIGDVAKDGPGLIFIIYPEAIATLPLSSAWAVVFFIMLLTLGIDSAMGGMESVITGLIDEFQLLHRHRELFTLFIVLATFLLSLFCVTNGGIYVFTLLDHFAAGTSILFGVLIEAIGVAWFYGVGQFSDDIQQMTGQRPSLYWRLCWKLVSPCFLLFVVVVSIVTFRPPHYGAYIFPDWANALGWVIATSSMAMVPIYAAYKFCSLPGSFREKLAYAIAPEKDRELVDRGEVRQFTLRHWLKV

Row | SMILES | level of inhibition in the dopamine transporter inhibitory assay | % of Control Specific Binding (mean of two tests) ([3H]BTCP 4 nM radioligand, mean of two tests) [%]
1 | CC(C)=CCc1c(C2CCc3ccc(O)cc3O2)ccc(O)c1O (stereo in doubt) [Kazinol U, 4-[(2S)-7-hydroxy-3,4-dihydro-2H-chromen-2-yl]-3-(3-methylbut-2-enyl)benzene-1,2-diol] | high level of inhibition | 
2 | OC[C@@H](O)[C@@H](/C=C/c1ccc(O)cc1)c1ccc(O)cc1 [Agatharesinol, (2S,3S,4E)-3,5-bis(4-hydroxyphenyl)pent-4-ene-1,2-diol] | extremely high level of inhibition | 4.6
3 | OC[C@@H](O)[C@@H](/C=C/c1ccc(O)cc1)c1ccc(O)c(O)c1 [Sequirin C, 4-[(1S,2E)-1-[(1S)-1,2-dihydroxyethyl]-3-(4-hydroxyphenyl)prop-2-en-1-yl]benzene-1,2-diol] | extremely high level of inhibition | 
